In article PMC8621172, “Manipulating Estrogenic/Anti-Estrogenic Activity of Triphenylethylenes towards Development of Novel Anti-Neoplastic SERMs” (International Journal of Molecular Sciences, 2021):
“Also recorded” adds a separate entry of the source.

Columns and labels:
[1] = system: Ishikawa endometrial adenocarcinoma cell line; experiment: Alkaline phosphatase (AlkP) activity in Ishikawa cells; format: cell-based, human; details: for Relative alkaline phosphatase activity: 72 h, DMSO set to 1; for effect on AlkP activity (in words): 72 h treatment, 5-dose assay 1 nM to 10 µM
Protocol: Alkaline phosphatase (AlkP) activity in these human endometrial cancer cells is markedly stimulated by estrogens.
Because of the potential SERM character of the compounds tested, their estrogenic effects were studied in an endometrial-derived cell culture model, the human endometrial adenocarcinoma cell line Ishikawa. […] All compounds were screened at two concentrations, 0.1 and 1 µM. Its agonistic effect was compared to the vehicle control DMSO (data shown in Supplementary Materials). […] The four compounds were studied in a concentration range of 1 nM to 10 µM.
Estrogens stimulate the activity of alkaline phosphatase (AlkP) in Ishikawa cells (human endometrial adenocarcinoma cells; kindly provided by Prof. Masato Nishida, National Hospital Organization, Kasumigaura Medical Center, Japan). This enzyme activity is estimated by using the chromogen substrate (4-nitrophenylphosphate). […] The procedure was modified by Littlefield et al., 1990 [42].
After 72 h incubation, cells were harvested, washed twice with PBS, and incubated at −80 °C for about 30 min to lyse the cells. After thawing, the lysates were resuspended in reaction buffer (274 mM mannitol, 100 mM CAPS, 4 mM MgCl2, pH 10.4) containing 4 mM p-nitrophenylphosphate (NPP). After incubation for 1 h in the dark, AlkP activity was assayed by using the hydrolysis of p-nitrophenylphosphate to p-nitrophenol at pH 10.4 and the spectrometric determination of the kinetic of the product formation at 405 nm. All compounds were tested in technical triplicates and biological triplicates. Statistical analysis was performed by analysis of variance (ANOVA) and Tukey’s post-hoc test with the significance level of p < 0.05.

ovariectomized rats = experiment: Uterotrophic assay in ovariectomized rats; format: in vivo, rat
From the text: Compounds showing appreciable estrogenic activity in the YES assay and that were able to inhibit the growth of MCF-7 cancer cell lines yet with low estrogenic activity on Ishikawa endometrial adenocarcinoma cells might serve as potential ideal SERMS. Compounds 12 and 19 were therefore selected for the in vivo experiments to assess their estrogenic properties in an uterotrophic assay in an ovariectomized rat model. The in vivo uterotrophic rat assay is the gold standard assay to test for the estrogenic effect of compounds; the assay uses adult ovariectomized (OVX) female rats where there is no significant source of endogenous estrogens. Compounds that have estrogenic effects cause uterotrophic response due to the imbibition of water and growth of the uterine cells. Statistically significant uterine weight increases compared to controls provide a positive result. Adopting both in vivo and in vitro assays was inevitable due to the limitations of each assay. The cell lines are not properly able to recapitulate the in vivo environment of the uterus within the body. On the other hand, the rat uterotrophic assay merely considers the uterine weight gain as an endpoint of estrogenicity without taking into account all factors that play a role in exerting an estrogenic effect on the organ and body.
The most common short-term in vivo assay for estrogenicity/anti-estrogenicity is the uterotrophic assay, suitable for screening ERα agonists and antagonists. The primary endpoint is the uterine wet weight (UWW). An increase in UWW indicates an estrogenic activity of the test compound. Compounds 12 and 19 were screened using the in vivo uterotrophic assay.
The most common short-term in vivo assay for (anti)-estrogenicity is the uterine growth test, suitable for screening ERα agonists and antagonists. The primary endpoint is the uterine wet weight (UWW). An increase in UWW indicates an estrogenic activity of the test compound [43]. Sprague Dawley female rats (170–200 g) were obtained from the animal colony of the National Institute of Research (Cairo, Egypt). The rats were housed in a temperature-controlled room (23–24 °C) with a 12 h light:dark cycle and with free access to food and water. They were allowed to acclimatize to the animal house of the German University in Cairo for at least 1 week before initiating the experiments. All efforts were made to minimize animal discomfort and suffering. Animals were ovariectomized. After 14 days of endogenous hormonal decline, the animals were subcutaneously treated for three days with respective compounds. The animals were randomly allocated to treatment and vehicle groups (n = 6). […] The uterus wet weight was determined.

COc1ccc(C(C)=C(c2ccc(Cl)cc2)c2ccc(OCCN3CCCCC3)cc2)cc1 [Compound 12, E/Z-1-(2-{4-[1-(4-Chloro-phenyl)-2-(4-methoxy-phenyl)-propenyl]-phenoxy}-ethyl)-piperidine]
Relative alkaline phosphatase activity ([1]; 1 nM): 0.95 ± 0.02 | Relative alkaline phosphatase activity ([1]; 10 nM): 0.96 ± 0.01 | Relative alkaline phosphatase activity ([1]; 100 nM): 1.14 ± 0.01 | Relative alkaline phosphatase activity ([1]; 10 µM): 0.42 ± 0.13 | effect on AlkP activity (in words) [1]: increase the AlkP activity in a dose-pendent manner | uterotrophic effect (in words) (ovariectomized rats; compared to TAM): no uterotrophic effect; also recorded: less increase in UWW | Relative uterus wet weight (ovariectomized rats; s.c. 10 mg/kg/d BW for three days): 1.23 ± 0.18 g/kg BW

CC(=C(c1ccc(Cl)cc1)c1ccc(OCCN2CCCC2)cc1)c1ccccc1 [Compound 6, E/Z-1-(2-{4-[1-(4-Chloro-phenyl)-2-phenyl-propenyl]-phenoxy}-ethyl)-pyrrolidine]
Relative alkaline phosphatase activity ([1]; 1 µM): 2.55 ± 1.35

COc1cc(C(C)=C(c2ccc(O)cc2)c2ccc(Cl)cc2)ccc1F [Compound 4, E/Z-4-[1-(4-Chlorophenyl)-2-(4-fluoro-3-methoxyphenyl)propenyl]-phenol]
Relative alkaline phosphatase activity ([1]; 1 µM): 1.10 ± 0.39

COc1ccc(C(C)=C(c2ccc(Cl)cc2)c2ccc(OCCN(C)C)cc2)cc1F [Compound 20, E/Z-(2-{4-[1-(4-Chlorophenyl)-2-(3-fluoro-4-methoxyphenyl)-propenyl]-phenoxy}-ethyl)-dimethyl-amine]
Relative alkaline phosphatase activity ([1]; 1 µM): 1.12 ± 0.46

COc1ccc(C(C)=C(c2ccc(Cl)cc2)c2ccc(OCCN3CCCC3)cc2)cc1F [Compound 16, E/Z-1-(2-{4-[1-(4-Chlorophenyl)-2-(3-fluoro-4-methoxyphenyl)-propenyl]-phenoxy}-ethyl)-pyrrolidine]
Relative alkaline phosphatase activity ([1]; 1 µM): 0.98 ± 0.53

CC(=C(c1ccc(Cl)cc1)c1ccc(OCCN2CCCCCC2)cc1)c1ccccc1 [Compound 9, E/Z-1-(2-{4-[1-(4-Chloro-phenyl)-2-phenyl-propenyl]-phenoxy}-ethyl)-azepane]
Relative alkaline phosphatase activity ([1]; 1 µM): 2.94 ± 1.29

COc1ccc(C(C)=C(c2ccc(Cl)cc2)c2ccc(OCCN3CCCC3)cc2)cc1 [Compound 11, E/Z-1-(2-{4-[1-(4-Chloro-phenyl)-2-(4-methoxy-phenyl)-propenyl]-phenoxy}-ethyl)-pyrrolidine]
Relative alkaline phosphatase activity ([1]; 1 nM): 1.25 ± 0.61 | Relative alkaline phosphatase activity ([1]; 10 nM): 1.13 ± 0.31 | Relative alkaline phosphatase activity ([1]; 100 nM): 1.75 ± 0.50 | Relative alkaline phosphatase activity ([1]; 10 µM): 1.36 ± 0.38 | effect on AlkP activity (in words) [1]: increase the AlkP activity in a dose-pendent manner

COc1ccc(C(C)=C(c2ccc(Cl)cc2)c2ccc(OCCN3CCCCCC3)cc2)cc1 [Compound 14, E/Z-1-(2-{4-[1-(4-Chloro-phenyl)-2-(4-methoxy-phenyl)-propenyl]-phenoxy}-ethyl)-azepane]
Relative alkaline phosphatase activity ([1]; 1 µM): 6.58 ± 2.24

COc1ccc(C(C)=C(c2ccc(Cl)cc2)c2ccc(OCCN3CCOCC3)cc2)cc1 [Compound 13, E/Z-4-(2-{4-[1-(4-Chloro-phenyl)-2-(4-methoxy-phenyl)-propenyl]-phenoxy}-ethyl)-morpholine]
Relative alkaline phosphatase activity ([1]; 1 µM): 3.74 ± 2.05

CC(=C(c1ccc(Cl)cc1)c1ccc(OCCN2CCOCC2)cc1)c1ccccc1 [Compound 8, E/Z-4-(2-{4-[1-(4-Chloro-phenyl)-2-phenyl-propenyl]-phenoxy}-ethyl)-morpholine]
Relative alkaline phosphatase activity ([1]; 1 µM): 1.16 ± 0.15

CC(=C(c1ccc(Cl)cc1)c1ccc(OCCN2CCCCC2)cc1)c1ccccc1 [Compound 7, E/Z-1-(2-{4-[1-(4-Chloro-phenyl)-2-phenyl-propenyl]-phenoxy}-ethyl)-piperidine]
Relative alkaline phosphatase activity ([1]; 1 µM): 2.55 ± 1.80

COc1ccc(C(C)=C(c2ccc(Cl)cc2)c2ccc(OCCCN(C)C)cc2)cc1 [Compound 10, E/Z-(3-{4-[1-(4-Chloro-phenyl)-2-(4-methoxy-phenyl)-propenyl]-phenoxy}-propyl)-dimethyl-amine]
Relative alkaline phosphatase activity ([1]; 1 µM): 2.55 ± 1.80

COc1ccc(C(C)=C(c2ccc(O)cc2)c2ccc(Cl)cc2)cc1F [Compound 3, E/Z-4-[1-(4-Chlorophenyl)-2-(3-fluoro-4-methoxyphenyl)propenyl]-phenol]
Relative alkaline phosphatase activity ([1]; 1 µM): 1.13 ± 0.43

CC(=C(c1ccc(Cl)cc1)c1ccc(OCCCN(C)C)cc1)c1ccccc1 [Compound 5, E/Z-(3-{4-[1-(4-Chloro-phenyl)-2-phenyl-propenyl]-phenoxy}-propyl)-dimethyl-amine]
Relative alkaline phosphatase activity ([1]; 1 nM): 0.93 ± 0.64 | Relative alkaline phosphatase activity ([1]; 10 nM): 0.95 ± 0.37 | Relative alkaline phosphatase activity ([1]; 100 nM): 1.05 ± 0.30 | Relative alkaline phosphatase activity ([1]; 1 µM): 1.08 ± 0.33 | Relative alkaline phosphatase activity ([1]; 10 µM): 0.21 ± 0.16 | effect on AlkP activity (in words) [1]: No significant effects

COc1ccc(C(C)=C(c2ccc(Cl)cc2)c2ccc(OCCN3CCOCC3)cc2)cc1F [Compound 18, E/Z-4-(2-{4-[1-(4-Chlorophenyl)-2-(3-fluoro-4-methoxyphenyl)-propenyl]-phenoxy}-ethyl)-morpholine]
Relative alkaline phosphatase activity ([1]; 1 µM): 1.01 ± 0.24

CCN(CC)CCOc1ccc(C(=C(C)c2ccc(OC)c(F)c2)c2ccc(Cl)cc2)cc1 [Compound 21, E/Z-(2-{4-[1-(4-Chlorophenyl)-2-(3-fluoro-4-methoxyphenyl)-propenyl]-phenoxy}-ethyl)-diethyl-amine]
Relative alkaline phosphatase activity ([1]; 1 µM): 0.90 ± 0.13

COc1ccc(C(C)=C(c2ccc(Cl)cc2)c2ccc(OCCCN(C)C)cc2)cc1F [Compound 15, E/Z-(3-{4-[1-(4-Chlorophenyl)-2-(3-fluoro-4-methoxyphenyl)-propenyl]-phenoxy}-propyl)-dimethyl-amine]
Relative alkaline phosphatase activity ([1]; 1 µM): 0.86 ± 0.12
